Laboratory results reported in patent US9980943B2, “Methods of treating muscular dystrophy” (BOARD OF REGENTS OF THE NEVADA SYSTEM OF HIGHER EDUCATION, …, priority 2013, dated 2018).

Columns and labels:
Type in all cases: cell-based, mouse
[1] = test system: α7 integrin (LacZ reporter in α7+/LacZ myotubes); assay: Myotube α7 integrin FDG assay (Burkin assay in myotubes, 96-well); conditions: myotubes
[2] = test system: α7 integrin (LacZ reporter in α7βgal+/− myoblasts); assay: Myoblast α7+/LacZ integrin FDG assay (Burkin assay in myoblasts, 96-well); conditions: α7+/LacZ myoblasts, 96-well
[3] = test system: β-galactosidase in CMV-LacZ C2C12 myotubes; assay: CMV-LacZ secondary screen in C2C12 myotubes (β-Gal stabilizing assay); conditions: C2C12 CMV-LacZ myotubes, fold relative to DMSO
Summary of the method: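 Stable CMV-LacZ C2C12 clone; six-point curve 0.5–40 μM; duplicates.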

SMILES | Burkin Assay in Myotubes, α7 integrin LacZ reporter signal relative to DMSO ([1]; 0.5 uM) | Burkin Assay in Myotubes, α7 integrin LacZ reporter signal relative to DMSO ([1]; 1 uM) | Burkin Assay in Myotubes, α7 integrin LacZ reporter signal relative to DMSO ([1]; 5 uM) | Burkin Assay in Myotubes, α7 integrin LacZ reporter signal relative to DMSO ([1]; 10 uM) | Burkin Assay in Myotubes, α7 integrin LacZ reporter signal relative to DMSO ([1]; 20 uM) | Burkin Assay in Myotubes, α7 integrin LacZ reporter signal relative to DMSO ([1]; 40 uM) | Burkin Assay in Myoblasts, signal relative to DMSO ([2]; 0.5 uM) | Burkin Assay in Myoblasts, signal relative to DMSO ([2]; 1 uM) | Burkin Assay in Myoblasts, signal relative to DMSO ([2]; 5 uM) | Burkin Assay in Myoblasts, signal relative to DMSO ([2]; 10 uM) | Burkin Assay in Myoblasts, signal relative to DMSO ([2]; 20 uM) | Burkin Assay in Myoblasts, signal relative to DMSO ([2]; 40 uM) | CMV-LACZ in Myotubes, signal relative to DMSO ([3]; 5 uM) | CMV-LACZ in Myotubes, signal relative to DMSO ([3]; 10 uM) | CMV-LACZ in Myotubes, signal relative to DMSO ([3]; 20 uM) | CMV-LACZ in Myotubes, signal relative to DMSO ([3]; 40 uM)
NC(=O)c1cccnc1Oc1ccc(Cl)cc1Cl [MLS000861434-01] | 0.9593 | 1.066 | 0.9788 | 1.101 | 0.8762 | 1.058 | 0.9464 | 1.028 | 0.9133 | 0.9772 | 0.8777 | 0.9322 | 0.8844 | 0.8027 | 0.8429 | 0.8381
CCCOc1nc(SCCC)nc2c1cnn2-c1ccccc1 [MLS000737953-01] | 0.9665 | 1.135 | 1.241 | 1.226 | 1.007 | 0.5339 | 0.9 | 0.9673 | 1.003 | 1.08 | 1.149 | 1.233 | 0.8274 | 1.224 | 0.9478 | 0.9096
O=C(c1cccs1)N(Cc1ccco1)c1nc(-c2ccc(F)cc2)cs1 [MLS000122749-01] | 1.042 | 0.9982 | 1.096 | 1.131 | 1.256 | 0.9306 | 1.113 | 1.04 | 1.026 | 1.116 | 1.185 | 0.948 | 1.022 | 1.063 | 0.808 | 1.0025
COc1ccc(CCNC(=O)c2cc(-c3cc(C)ccc3O)n[nH]2)cc1OC [MLS000552080-01] | 0.9672 | 1.15 | 1.214 | 1.24 | 1.0378 | 0.9286 | 0.9689 | 0.9784 | 1.056 | 1.089 | 0.9333 | 0.8855 | 1.197 | 1.0688 | 0.9522 | 0.8044
